What is called melting point is the temperature, or range, at which the solid turns liquid.

Data set [1] deals with wheat (Triticum aestivum, variety "TRISO"). Put plainly: Root growth assay, seed treatment, wheat. To be noted: for Root Growth (Root Growth of "100" is set as the standard): wet root weight 16 (±2) days post treatment; for effect as plant growth regulator in wheat: result in words, at various/different concentrations. Details: key to Root Growth (Root Growth of "100" is set as the standard): relative root growth; 100 = standard (untreated control). Format: in vivo. An excerpt: (§1) Plant roots are a highly proliferative tissue that allows an easy accessible, cheap and short term screening method for plant growth regulators. The results obtained can easily be transferred to the overall effects on a plant of plant growth regulators identified by such a system. By using this root assay one is enabled to determine the effect of a seed treatment to root growth and/or germination and/or changes in habitat of germinated plants in order to identify the possible use as a yield enhancer. Two seeds of wheat (Triticum aestivum, variety “TRISO”) or 1 seed of maize (Zea mays, variety “LORENZO”) per hole in a plastic tray which contains an architecture of 8×13 holes were placed on compost soil covered with sand. These seeds were treated with 100 μl/hole, which creates an application volume of approx. 1200 l/ha, of a compound solution at active ingredient rates equivalent to 100, 10 and 1 g a.i./ha of each compound using an robotic application system (Lizzy Spray Robotics). Six replicates in a row of each compound and concentration were done. The outer rim of the above defined plastic tray was untreated to avoid false negative effects and the middle row (No. 7) was used as untreated control. The treated seeds were allowed to dry for approx. 4 hours and subsequently covered with sand and watered. The trays were stored in climate chambers with 14 hours lighting at a temperature of 24° C. (±2) at daytime and 16° C. (±2) at night and relative humidity (rH) of 60% and daily watered. Assessments were done 16 (±2) days post treatment by counting the germinated plants and assessing the phytotoxicity symptoms and percentage. In addition, the roots were washed out and the shoots were cut directly above the seed and the wet roots were placed on dry paper towels for approximately 30 minutes and weighted afterwards. This procedure provides a similar grade of moisture to the roots so that a comparison of the weights is possible.
(§2) The effects observed concerning Root Growth given in column 2 (Root Growth of “100” is set as the standard) are directed to concentrations that are equivalent to 100, 10, 1 g a.i./ha, each.

Data set [2] deals with maize (Zea mays, variety "LORENZO"). Put plainly: Root growth assay, seed treatment, maize. Format: in vivo. The settings on record: for Root Growth (Root Growth of "100" is set as the standard): wet root weight 16 (±2) days post treatment; for effect as plant growth regulator in maize: result in words.
Source text: as §1, §2

Turning to `CSc1ccc(Nc2nc(N)c(C(=O)c3cccnc3)s2)cc1` [Compound 1.117], the entries for the “Root Growth (Root Growth of "100" is set as the standard)” value (“Root Growth” for short) in data set [1] (1 g a.i./ha), in data set [1] (10 g a.i./ha) and in data set [1] (100 g a.i./ha) were 111, 126 and 125, respectively.

As to `Nc1nc(Nc2ccc(OC(F)(F)F)cc2)sc1C(=O)c1cccnc1` [Compound 1.118], the “Root Growth” value in data set [1] (1 g a.i./ha) is on record as 95; in data set [1] (10 g a.i./ha), 122; in data set [1] (100 g a.i./ha), 113.

For the compound `Nc1nc(Nc2ccccc2)sc1C(=O)c1cccnc1` [Compound 1.105], the entries for the “Root Growth” value in data set [1] (1 g a.i./ha), in data set [1] (10 g a.i./ha) and in data set [1] (100 g a.i./ha) were 72, 99 and 123, respectively. In addition, the “effect as plant growth regulator in wheat” value (“effect … in wheat” below) in data set [1] is reported as “superior effect”.

Turning to `Nc1nc(NCC2CCCCC2)sc1C(=O)C(Cc1ccccc1)NC(=O)OCc1ccccc1` (stereo not shown) [Compound 1.139], the results for the “Root Growth” value in data set [1] (1 g a.i./ha), in data set [1] (10 g a.i./ha) and in data set [1] (100 g a.i./ha) were 130, 66 and 120, respectively.

As for `Nc1nc(Nc2ccccc2)sc1C(=O)c1cccs1` [Compound 1.79], the “Root Growth” value in data set [2] (1 g a.i./ha) was 108; in data set [2] (10 g a.i./ha), 116; in data set [2] (100 g a.i./ha), 105; in data set [1] (1 g a.i./ha), 88; in data set [1] (10 g a.i./ha), 88; in data set [1] (100 g a.i./ha), 73. For the same compound, the “effect as plant growth regulator in maize” value (shortened to “effect … in maize”) in data set [2] is “superior effect”.

For `Nc1nc(Nc2cccc(C(F)(F)F)c2)sc1C(=O)c1ccc(OC(F)F)cc1` [Compound 1.58], the “Root Growth” value was 91 in data set [2] (1 g a.i./ha); 107 in data set [2] (10 g a.i./ha); 105 in data set [2] (100 g a.i./ha); 123 in data set [1] (1 g a.i./ha); 112 in data set [1] (10 g a.i./ha); 103 in data set [1] (100 g a.i./ha). In addition, in data set [2], the “effect … in maize” value is reported as “superior effects”. Further, the “effect … in wheat” value in data set [1] was “superior effects”.

As to `COc1ccc(Nc2nc(N)c(C(=O)c3cccnc3)s2)cc1` [Compound 1.106], the “Root Growth” value in data set [1] (1 g a.i./ha) stood at 145; in data set [1] (10 g a.i./ha), 99; in data set [1] (100 g a.i./ha), 90. Besides, the “effect … in wheat” value in data set [1] is on record as “superior effect”.

As for `Nc1nc(Nc2cccnc2)sc1C(=O)c1ccc(OC(F)F)cc1` [Compound 1.60, [4-Amino-2-(pyridin-3-yl-amino)-thiazol-5-yl]-(4-difluoromethoxyphenyl)-methanone], the melting point is 143 °C. Moreover, the “Root Growth” value in data set [2] (1 g a.i./ha) amounted to 191. In addition, in data set [2] (10 g a.i./ha), the “Root Growth” value stood at 105. The “Root Growth” value in data set [2] (100 g a.i./ha) was found to be 109. In addition, the “effect … in maize” value in data set [2] is reported as “superior effect”. The “Root Growth” value in data set [1] (1 g a.i./ha) is recorded as 98. Also, the “Root Growth” value in data set [1] (10 g a.i./ha) is 57. Also, the “Root Growth” value in data set [1] (100 g a.i./ha) is 54.

Turning to `N#Cc1ccc(Nc2nc(N)c(C(=O)c3cccnc3)s2)cc1` [Compound 1.108], the “Root Growth” value turned out to be 78 in data set [1] (1 g a.i./ha), 95 in data set [1] (10 g a.i./ha) and 131 in data set [1] (100 g a.i./ha). Further, in data set [1], the “effect … in wheat” value is recorded as “superior effect”.

In the case of `Nc1nc(Nc2ccccc2)sc1C(=O)c1ccc(OC(F)F)cc1` [Compound 1.53], the “Root Growth” value in data set [2] (1 g a.i./ha) is 91; in data set [2] (10 g a.i./ha) it was 85; in data set [2] (100 g a.i./ha), 108; in data set [1] (1 g a.i./ha) it was 125; in data set [1] (10 g a.i./ha) it was 107; in data set [1] (100 g a.i./ha) it was 101. Moreover, the “effect … in maize” value in data set [2] is “superior effects”. Further, the “effect … in wheat” value in data set [1] is listed as “superior effects”.
